Read-outs that look alike come from different tables or passages of the source.
What was measured:
[1] = target: mushroom tyrosinase (mTYR); experiment: Mushroom tyrosinase inhibition assay; type: biochemical, Agaricus bisporus; set-up: Tyrosinase inhibition (%): dose or concentration left out as unconfirmed; details: for IC50: mushroom tyrosinase; for IC50 / Tyrosinase inhibition (%): L-tyrosine substrate; for Tyrosinase inhibition (%): […] μM of compound
Method: The tyrosinase inhibitory activity assays on the synthesized DHIT derivatives 1a – 1 k was performed using mushroom tyrosinase (mTYR), as previously described with minor modification. […] The optical densities of dopachrome produced during incubation were measured using a microplate reader (VersaMax™, Molecular Devices, Sunnyvale, CA, USA) at 492 nm. […] All experiments were conducted in triplicate. To calculate the tyrosinase inhibitory activities, the following formula was used: % inhibition = [(1− (A/B)) × 100], where A is test sample optical density and B is the optical density of the non-treated control.
IC50 values were calculated by plotting linear regression curves of percentage inhibitions versus derivative concentrations. The negative control was obtained by adding dimethyl sulfoxide (DMSO) instead of a DHIT derivative.

mushroom tyrosinase = target: mushroom tyrosinase; set-up: method as in PMID 29521165; details: cited from earlier work

In the case of `COc1ccc(/C=c2\sc3n(c2=O)CCN=3)cc1` [Compound 1 g, (Z)-2-(4-Methoxybenzylidene)-5,6-dihydroimidazo[2,1-b]thiazol-3(2H)-one], the IC50 [1] is reported as greater than 100 µM.

For `COc1ccc(/C=c2\sc3n(c2=O)CCN=3)c(OC)c1` [Compound 1 h, (Z)-2-(2,4-Dimethoxybenzylidene)-5,6-dihydroimidazo[2,1-b]thiazol-3(2H)-one], the IC50 [1] was greater than 100 µM.

Compound `COc1cc(/C=c2\sc3n(c2=O)CCN=3)cc(OC)c1OC` [Compound 1 k, (Z)-2-(3,4,5-Trimethoxybenzylidene)-5,6-dihydroimidazo[2,1-b]thiazol-3(2H)-one] has an IC50 [1] greater than 100 µM.

With `O=c1/c(=C/c2ccc(O)cc2)sc2n1CCN=2` [Compound 1a, (Z)-2-(4-Hydroxybenzylidene)-5,6-dihydroimidazo[2,1-b]thiazol-3(2H)-one] the “mushroom tyrosinase inhibition compared with kojic acid” value [1] was “inhibited mTYR more than kojic acid”, the IC50 [1] was 36.1 ± 3.9 µM and the “fold stronger tyrosinase inhibitor than kojic acid” value ([1]; ratio of IC50 values) was 2.3 fold.

With `O=c1/c(=C/c2ccc(O)c(O)c2)sc2n1CCN=2` [Compound 1c, (Z)-2-(3,4-Dihydroxybenzylidene)-5,6-dihydroimidazo[2,1-b]thiazol-3(2H)-one] the IC50 [1] was greater than 100 µM.

With `COc1cc(/C=c2\sc3n(c2=O)CCN=3)ccc1O` [Compound 1d, (Z)-2-(4-Hydroxy-3-methoxybenzylidene)-5,6-dihydroimidazo[2,1-b]thiazol-3(2H)-one] the “Tyrosinase inhibition (%)” value ([1]; […] µM) was 7.83 ± 2.29% and the IC50 [1] was greater than 100 µM.

For `CCOc1cc(/C=c2\sc3n(c2=O)CCN=3)ccc1O` [Compound 1e, (Z)-2-(3-Ethoxy-4-hydroxybenzylidene)-5,6-dihydroimidazo[2,1-b]thiazol-3(2H)-one], the “Tyrosinase inhibition (%)” value ([1]; […] µM) was 3.90 ± 2.65% and the IC50 [1] was greater than 100 µM.

With `COc1ccc(/C=c2\sc3n(c2=O)CCN=3)cc1OC` [Compound 1i, (Z)-2-(3,4-Dimethoxybenzylidene)-5,6-dihydroimidazo[2,1-b]thiazol-3(2H)-one] the “Tyrosinase inhibition (%)” value [1] was “low or no mTYR inhibitory activity” and the IC50 [1] was greater than 100 µM.

In the case of `COc1cc(/C=c2\sc3n(c2=O)CCN=3)cc(OC)c1O` [Compound 1j, (Z)-2-(4-Hydroxy-3,5-dimethoxybenzylidene)-5,6-dihydroimidazo[2,1-b]thiazol-3(2H)-one], the “Tyrosinase inhibition (%)” value [1] is reported as 24.43 ± 1.50% and the IC50 [1] is reported as greater than 100 µM.

For `[H]/N=C1/NC(=O)C(=Cc2ccc(OC)c(O)c2)S1` [MHY773, (Z)-5-(3-hydroxy-4-methoxybenzylidene)-2-iminothiazolidin-4-one], the IC50 (mushroom tyrosinase; diphenolase) is listed as 8.06 µM and the IC50 (mushroom tyrosinase; monophenolase) is listed as 2.87 µM.

For `O=c1cc(CO)occ1O` [kojic acid, reference compound], the “Tyrosinase inhibition (%)” value ([1]; […] µM) was 30% and the “Tyrosinase inhibition (%)” value ([1]; listed as KA, […] µM) was 30.26 ± 0.55%.

Reference: paper PMC8861568, “Identification of (Z)-2-benzylidene-dihydroimidazothiazolone derivatives as tyrosinase inhibitors: Anti-melanogenic effects and in silico studies” (Computational and Structural Biotechnology Journal, 2022)
